From BigSolDB 2.1

O=C(O)/C=C/C(=O)O
solubility (mole fraction)
Conditions | in acetone | in ethanol | in isopropanol | in n-propanol | in water
279 K | 0.00344 | 0.0126 | 0.0109 | 0.00847 | 0.000136
285 K | 0.00419 | 0.014 | 0.0138 | 0.0103 | 0.000435
291 K | 0.00498 | 0.0157 | 0.0169 | 0.0122 | 0.000813
297 K | 0.00583 | 0.0178 | 0.0202 | 0.0143 | 0.00125
303 K | 0.00673 | 0.0205 | 0.0236 | 0.0165 | 0.00171
309 K | 0.00768 | 0.0233 | 0.0272 | 0.0189 | 0.00221
315 K | 0.00867 | 0.0267 | 0.031 | 0.0215 | 0.00265
321 K | 0.00972 | 0.0305 | 0.0349 | 0.0243 | 0.00328
327 K | 0.0108 | 0.0344 | 0.0391 | 0.0274 | 0.00415
333 K | 0.012 | 0.0383 | 0.0435 | 0.0306 | 0.00541
339 K | – | – | – | 0.0355 | 0.00624
342 K | – | – | 0.0538 | – | –
343 K | – | 0.0451 | – | – | –
345 K | – | – | – | 0.0398 | –
351 K | – | – | 0.0656 | – | –
351.8 K | – | – | – | 0.0486 | –
353 K | – | – | – | – | 0.00884
